Experimental data published in patent US9408871B2, “Methods for inhibiting complement activation and uses thereof” (THE UNIVERSITY OF BRITISH COLUMBIA, priority 2013, dated 2016).

Legend:
[1] = tested on: choroidal endothelial cells (CEC; RF/6A); assay: protection against H2O2 oxidative stress, microscopy; format: cell-based; conditions: 100 μM to 1000 μM, H2O2 24 hours
Experimental: (§1) Using cultured cell lines as models of choroidal endothelial cells (CEC; RF/6A)^73 and retinal pigmented epithelial cells (ARPE-19)^74, we tested whether polyphosphate (polyP) could protect against stress-induced alterations in cell survival and deposition of terminal complement activation products (C5b-9).
(§2) CEC (FIG. 21) or ARPE-19 (FIG. 22) cells were grown to ˜80% confluence in DMEM+10% serum, and then incubated with varying concentration of hydrogen peroxide (H2O2) for 24 hours in the presence of varying concentrations of polyP1000.

[2] = tested on: total complement-mediated hemolytic activity; assay: total complement-mediated hemolytic activity assay (4.5% NHS, rabbit erythrocytes); format: cell-based, human; conditions: rRBC, 30 min, read-out: IC50 (concentration required to achieve half maximal inhibition of lysis), total hemolytic activity
From the text: Erythrocyte lysis assays were used to measure complement-mediated hemolytic activity. Erythrocyte (RBC) lysis assays as previously described^18,37 were used to measure complement activity. For alternative pathway assays and for total hemolytic activity assays, unsensitized rabbit erythrocytes were used. Chicken erythrocytes were used for the terminal pathway assays.
Erythrocytes were washed three times in GVB with the reaction buffers as indicated, and counted using the Advia 120 Hematology System from Siemens (Siemens, Erlangen, Germany). Reactions in 300 μL were allowed to proceed for 30 min at 37° C., after which unlysed cells were pelleted by centrifugation at 600×g. Erythrocyte lysis, reflected by the released hemoglobin in the supernatant, was quantified by measuring the absorbance at 405 nm using the Mithras LB 940 microplate reader from Berthold Technologies (Bad Wildbad, Germany). Percent lysis was determined relative to the control of 100% lysis with H2O. […]
For total hemolytic activity assays, normal human serum (NHS) (4.5%), polyphosphate, and rabbit erythrocytes (rRBC) (6.0×10^7 cells/mL) were added sequentially to initiate lysis. […] Increasing absorbance corresponds to increasing hemoglobin release from lysed red blood cells. The linear region of the curve was determined to be between 20-80% lysis, corresponding to 2.5-4.5% serum. […]

[3] = tested on: choroidal neovascularization; assay: experimental laser-induced choroidal neovascularization (CNV) model, retina whole mounts; format: in vivo; conditions: rat, intravitreal injection 10′ after laser, final estimated concentration 200 μM, 5 days
Experimental: Eleven-week-old female Long Even (LE) rats (Charles River Laboratory, Wilmington, Mass.) weighing 256 to 315 g were used. The animals were handled in accordance with institutional guidelines and the ARVO Statement for the Use of Animals in Ophthalmic and Vision Research. The rats were anesthetized by intramuscular injection of a 1 mL/kg mixture (1:1) of ketamine hydrochloride (40 mg/kg) and xylazine hydrochloride (10 mg/ml), and their pupils were dilated with tropicamide (0.5% Mydrin). Experimental choroidal neovascularization (CNV) was created as described previously (Takehana et al., Invest Ophthalmol Vis Sci, 1999, 40 (2):459-66). […]
After laser treatment, under anesthesia, intravitreal injections were performed on a lasered eye under a dissecting microscope (Stereo dissection microscope, SMZ 1000; Nikon, Tokyo, Japan). […] After the procedure, animals were monitored in a recovery enclosure until they resumed baseline normal activity levels. […]
Each eye cup flatmount preparation was analyzed using a confocal laser-scanning microscope (Zeiss-LSM 510 META). […] Intensity and size of GSL-IB4 and C5b-9 immunohistochemistry were analyzed using image-processing and image-analysis software Image J 1.37 (developed by Wayne Rasband, National Institute of Health, Bethesda, Md., USA). […]

[4] = tested on: retinal pigmented epithelial cells (ARPE-19); assay: protection against H2O2 oxidative stress, microscopy; format: cell-based, human; conditions: 100 μM to 1000 μM, H2O2 24 hours
Experimental: as §1, §2

O=P(O)(O)O [P1, Orthophosphate]
protective effect against H2O2 oxidative stress, CEC [1]: No effect was observed | IC50 [2]: ~3.5 mM | neovascularization and deposition of MAC on retina after laser injury [3]: is not protective | protective effect against H2O2 oxidative stress, ARPE-19 [4]: No effect was observed
